The values below come from paper PMC4804635 (European journal of pharmacology, 2016).

A word on the inhibition: it is how much of the control response was suppressed. As a reminder, the IC50 is the concentration at which inhibition is half-maximal. Broadly, the Ki is a measure of affinity in units of concentration, obtained from inhibition or displacement.

Assay [1] addresses Recombinant Human ACE (rhACE) (Homo sapiens, UniProt P12821). In words: ACE activity assay with recombinant human ACE. The class given is biochemical.
A further assay deals with T1, Murine MNC ACE (Mus musculus, UniProt P09470).
T1 sequence (P09470 35-1312): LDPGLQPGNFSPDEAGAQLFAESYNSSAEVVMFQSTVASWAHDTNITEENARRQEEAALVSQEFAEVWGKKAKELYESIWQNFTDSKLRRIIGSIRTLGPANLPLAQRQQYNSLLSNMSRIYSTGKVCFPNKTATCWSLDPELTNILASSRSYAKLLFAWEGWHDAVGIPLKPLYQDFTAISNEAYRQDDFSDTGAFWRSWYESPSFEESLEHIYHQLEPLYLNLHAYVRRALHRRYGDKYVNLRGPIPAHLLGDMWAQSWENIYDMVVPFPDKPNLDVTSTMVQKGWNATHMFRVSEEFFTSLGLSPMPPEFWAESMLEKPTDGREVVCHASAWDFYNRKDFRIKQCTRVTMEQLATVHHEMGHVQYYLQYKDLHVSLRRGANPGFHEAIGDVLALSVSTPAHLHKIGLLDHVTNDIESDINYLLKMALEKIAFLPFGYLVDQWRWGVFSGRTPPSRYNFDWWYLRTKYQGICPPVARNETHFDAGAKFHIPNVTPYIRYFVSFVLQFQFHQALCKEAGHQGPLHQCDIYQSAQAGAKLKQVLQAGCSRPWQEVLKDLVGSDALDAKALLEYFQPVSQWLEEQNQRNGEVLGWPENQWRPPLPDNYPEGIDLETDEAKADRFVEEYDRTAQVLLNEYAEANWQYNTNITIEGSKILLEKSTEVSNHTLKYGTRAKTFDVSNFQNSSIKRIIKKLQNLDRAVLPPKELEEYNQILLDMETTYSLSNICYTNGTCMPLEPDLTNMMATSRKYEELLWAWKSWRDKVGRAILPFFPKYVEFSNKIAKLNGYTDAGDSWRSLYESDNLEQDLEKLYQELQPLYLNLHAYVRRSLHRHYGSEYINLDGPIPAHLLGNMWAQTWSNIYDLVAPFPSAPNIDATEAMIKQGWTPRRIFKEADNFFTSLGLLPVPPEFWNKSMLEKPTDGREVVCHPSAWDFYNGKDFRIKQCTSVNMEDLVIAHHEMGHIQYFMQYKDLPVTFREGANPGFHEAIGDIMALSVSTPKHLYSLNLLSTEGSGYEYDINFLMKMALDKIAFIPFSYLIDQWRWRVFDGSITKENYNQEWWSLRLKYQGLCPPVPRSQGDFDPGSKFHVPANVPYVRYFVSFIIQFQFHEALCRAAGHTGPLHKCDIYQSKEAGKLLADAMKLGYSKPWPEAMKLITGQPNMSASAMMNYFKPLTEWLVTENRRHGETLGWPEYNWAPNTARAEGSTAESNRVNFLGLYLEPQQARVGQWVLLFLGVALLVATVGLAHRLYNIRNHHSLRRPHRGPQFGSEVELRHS
In words: ACE activity assay in murine mononuclear cell lysates.

A further assay has as its target Murine MNC ACE2 (Mus musculus, UniProt Q8R0I0). In words: ACE2 activity assay in murine mononuclear cell lysates.
The next assay deals with ACE in human CD34+ cells (Homo sapiens, UniProt P12821). In words: ACE activity assay in human CD34+ cell lysates.
ACE in human CD34+ cells, sequence (P12821 30-1306): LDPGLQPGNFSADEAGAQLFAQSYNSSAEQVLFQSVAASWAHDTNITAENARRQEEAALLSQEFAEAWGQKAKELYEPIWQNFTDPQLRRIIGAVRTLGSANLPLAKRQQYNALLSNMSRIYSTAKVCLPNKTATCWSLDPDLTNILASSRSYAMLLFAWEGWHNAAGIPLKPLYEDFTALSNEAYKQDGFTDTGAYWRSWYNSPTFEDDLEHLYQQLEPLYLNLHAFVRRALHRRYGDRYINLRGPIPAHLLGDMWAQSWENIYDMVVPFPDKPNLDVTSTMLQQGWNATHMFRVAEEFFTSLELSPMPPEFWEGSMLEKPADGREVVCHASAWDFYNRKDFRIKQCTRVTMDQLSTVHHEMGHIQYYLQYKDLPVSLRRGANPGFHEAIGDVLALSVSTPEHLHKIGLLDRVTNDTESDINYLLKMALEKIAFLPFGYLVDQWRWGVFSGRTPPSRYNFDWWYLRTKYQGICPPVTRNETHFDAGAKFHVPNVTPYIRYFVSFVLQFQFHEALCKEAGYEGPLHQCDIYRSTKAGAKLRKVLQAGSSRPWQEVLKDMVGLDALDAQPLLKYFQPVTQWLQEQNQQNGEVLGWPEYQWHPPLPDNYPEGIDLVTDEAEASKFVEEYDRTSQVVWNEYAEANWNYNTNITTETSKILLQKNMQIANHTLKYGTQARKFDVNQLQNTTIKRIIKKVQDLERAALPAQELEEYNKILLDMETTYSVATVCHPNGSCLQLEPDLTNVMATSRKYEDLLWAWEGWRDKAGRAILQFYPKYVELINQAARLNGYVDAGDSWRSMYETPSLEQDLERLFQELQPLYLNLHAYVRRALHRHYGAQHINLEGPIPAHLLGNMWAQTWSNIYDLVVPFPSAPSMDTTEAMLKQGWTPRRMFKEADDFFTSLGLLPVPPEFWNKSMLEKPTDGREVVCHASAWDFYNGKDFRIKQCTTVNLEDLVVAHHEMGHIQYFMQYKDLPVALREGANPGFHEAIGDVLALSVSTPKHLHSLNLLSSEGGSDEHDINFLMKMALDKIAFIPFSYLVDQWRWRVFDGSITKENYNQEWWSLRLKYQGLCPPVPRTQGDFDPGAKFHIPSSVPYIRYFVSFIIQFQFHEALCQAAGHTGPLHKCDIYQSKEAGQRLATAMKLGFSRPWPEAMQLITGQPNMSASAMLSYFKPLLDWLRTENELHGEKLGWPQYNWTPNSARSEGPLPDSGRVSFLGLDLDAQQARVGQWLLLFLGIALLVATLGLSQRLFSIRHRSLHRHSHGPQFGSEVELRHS
In the next assay the target is ACE2 in murine heart (Mus musculus, UniProt Q8R0I0). In words: ACE2 activity assay in murine heart homogenate. Type of assay: biochemical.
A further assay addresses Human MNC ACE2 (Homo sapiens, UniProt Q9BYF1). In words: ACE2 activity assay in human mononuclear cell lysates. To be noted: for Imax at ACE2 in human MNCs: cell lysate 10 μg protein, 4 h.
Assay [2] addresses Recombinant Human ACE2 (rhACE2) (Homo sapiens, UniProt Q9BYF1). In words: ACE2 activity assay with recombinant human ACE2. Type of assay: biochemical.
Assay [3] deals with ACE2 in human CD34+ cells (Homo sapiens, UniProt Q9BYF1). In words: ACE2 activity assay in human CD34+ cell lysates. Conditions: for Imax at ACE2 in human CD34+ cells: cell lysate, 4 h, n=6.
ACE2 in human CD34+ cells, sequence (Q9BYF1 18-805): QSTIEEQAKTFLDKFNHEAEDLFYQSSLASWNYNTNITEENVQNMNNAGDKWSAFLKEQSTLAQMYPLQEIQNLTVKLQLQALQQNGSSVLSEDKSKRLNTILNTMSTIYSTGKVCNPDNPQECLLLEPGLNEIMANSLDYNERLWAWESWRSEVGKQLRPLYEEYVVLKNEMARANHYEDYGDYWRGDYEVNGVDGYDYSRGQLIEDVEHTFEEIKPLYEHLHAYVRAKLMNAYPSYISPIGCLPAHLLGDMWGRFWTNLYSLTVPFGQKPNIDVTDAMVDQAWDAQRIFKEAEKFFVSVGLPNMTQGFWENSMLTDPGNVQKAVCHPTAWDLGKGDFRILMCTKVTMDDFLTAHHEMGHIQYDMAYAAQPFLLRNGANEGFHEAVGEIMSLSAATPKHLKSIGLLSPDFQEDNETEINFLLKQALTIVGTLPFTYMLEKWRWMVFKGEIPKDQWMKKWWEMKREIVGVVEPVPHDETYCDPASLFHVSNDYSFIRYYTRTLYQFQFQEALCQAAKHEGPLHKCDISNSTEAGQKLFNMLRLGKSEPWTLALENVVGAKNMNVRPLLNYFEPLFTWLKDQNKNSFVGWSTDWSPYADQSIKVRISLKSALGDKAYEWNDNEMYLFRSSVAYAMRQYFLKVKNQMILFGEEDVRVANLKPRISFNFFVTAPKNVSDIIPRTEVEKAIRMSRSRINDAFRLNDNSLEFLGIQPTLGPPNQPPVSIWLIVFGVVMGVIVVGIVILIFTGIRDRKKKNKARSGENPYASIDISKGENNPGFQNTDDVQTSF
A further assay concerns the target T2, ACE in murine heart (Mus musculus, UniProt P09470).
T2 sequence (P09470 35-1312): T1 sequence (P09470 35-1312)
In words: ACE activity assay in murine heart homogenate. The class given is biochemical.

Another assay addresses Human MNC ACE (Homo sapiens, UniProt P12821). In words: ACE activity assay in human mononuclear cell lysates. To be noted: cell lysate 10 μg protein, 4 h.
Where [4] appears, read: recombinant enzyme, 50 μM substrate, pH 6.5, 1 h.

Each structure is given as a SMILES string.

Human MNC ACE2, sequence (Q9BYF1 18-805): as above
Recombinant Human ACE2 (rhACE2), sequence (Q9BYF1 18-805): as above
Recombinant Human ACE (rhACE), sequence (P12821 30-1306): as the sequence (P12821 30-1306) above
Murine MNC ACE2, sequence (Q8R0I0 18-805): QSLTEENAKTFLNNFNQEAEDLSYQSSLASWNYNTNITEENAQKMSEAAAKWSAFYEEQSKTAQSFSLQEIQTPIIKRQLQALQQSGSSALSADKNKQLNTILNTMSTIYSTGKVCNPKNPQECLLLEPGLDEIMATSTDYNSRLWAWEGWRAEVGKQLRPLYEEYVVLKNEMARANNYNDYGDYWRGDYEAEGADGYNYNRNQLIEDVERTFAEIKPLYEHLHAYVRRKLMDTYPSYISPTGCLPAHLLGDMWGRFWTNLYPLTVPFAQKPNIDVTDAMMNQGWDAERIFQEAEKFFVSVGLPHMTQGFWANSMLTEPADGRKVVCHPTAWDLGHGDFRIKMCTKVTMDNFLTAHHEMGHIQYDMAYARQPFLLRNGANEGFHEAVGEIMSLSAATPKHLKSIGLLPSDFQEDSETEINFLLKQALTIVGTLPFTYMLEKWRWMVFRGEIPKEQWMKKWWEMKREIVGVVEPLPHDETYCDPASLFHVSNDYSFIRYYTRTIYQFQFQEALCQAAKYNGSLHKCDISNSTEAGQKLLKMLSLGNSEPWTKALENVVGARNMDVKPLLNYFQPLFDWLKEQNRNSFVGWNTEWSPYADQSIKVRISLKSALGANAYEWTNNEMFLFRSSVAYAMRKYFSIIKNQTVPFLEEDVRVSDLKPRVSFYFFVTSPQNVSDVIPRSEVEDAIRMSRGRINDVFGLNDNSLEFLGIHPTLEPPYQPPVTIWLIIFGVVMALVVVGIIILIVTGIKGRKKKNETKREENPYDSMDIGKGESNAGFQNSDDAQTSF
Human MNC ACE, sequence (P12821 30-1306): as the sequence (P12821 30-1306) above

Turning to `CC(C)C[C@H](N[C@@H](Cc1cncn1Cc1cc(Cl)cc(Cl)c1)C(=O)O)C(=O)O` [isomer B, (2S)-2-[[(2S)-3-[3-[(3,5-dichlorophenyl)methyl]imidazol-4-yl]-1-hydroxy-1-oxopropan-2-yl]amino]-4-methylpentanoic acid], the inhibition at 10 µM in assay [1] (read-out: inhibition of rhACE activity) was determined as 43%. Also, the “Imax at rhACE” value in assay [1] (setting [4]) was 46±1%. In addition, the IC50 is 20000 nM against Murine MNC ACE; 79.4 nM on Murine MNC ACE2 (pIC50 at ACE2 in murine MNCs, cell lysate, 4 h); 12600 nM against ACE in human CD34+ cells; 251 nM on ACE2 in murine heart; 500 ± 30 nM on Human MNC ACE2 (IC50, Human ACE2 (human MNCs)); 10 ± 6 nM in [2] (IC50, Recombinant Human ACE2). Moreover, the IC50 was 316 nM in assay [3] and 63100 nM at ACE in murine heart. Further, the values for the Ki (at Murine MNC ACE2; at Human MNC ACE2; in assay [2]) were 2100 ± 200 nM, 200 ± 10 nM and 40 ± 5 nM, respectively. Further, the “Imax at ACE in human CD34+ cells” value at ACE in human CD34+ cells (cell lysate, 4 h, n=6) is listed as 19±2%. Also, the “Imax at ACE2 in human MNCs” value at Human MNC ACE2 is reported as 63±2%; on Human MNC ACE2 (listed as MLN-4760-B), 63%. Also, in assay [2] (setting [4]), the “Maximum inhibition (Imax) of rhACE2” value was 80±3%. The “Imax at ACE2 in human CD34+ cells” value in [3] is recorded as 38±4%; in assay [3] (listed as MLN-4760-B), 38%. The “Imax at ACE in human MNCs” value on Human MNC ACE came out at 34±1%.
